Test results taken from paper PMC12973313 (Chemical Science, 2026).
Like-named read-outs stand apart in the source and are kept apart here.

How the values were obtained:
[1] = Bi-directional permeability in Caco-2 cell line; assay type: in vitro ADME; settings: human; for recovery at 2 h, 5 µM: Caco-2, pH 7.4, after 2 hours
From the text: (§1) Next, to gauge the suitability of SSAs for oral dosing, 9 was subjected to a Caco-2 permeability assay which is used to both predict human intestinal permeability and investigate drug efflux, predicting in vivo compound absorption. This assay allows assessment of a compound's ability to undergo transport from the apical to the basolateral (A–B) compartments of the cell monolayer and vice versa (B–A). […] This is likely to result in poor absorption when dosed orally and therefore further development would be necessary for these agents to become suitable for oral administration. […]
(§2) The ionspray voltage was 5500V.
(§3) Bi-directional Permeability in Caco-2 Cell Line:
(§4) The bi-directional permeability in Caco-2 cell lines was determined by seeding cells onto an HTS Transwell plate. Cells were cultivated for 14-18 days in a cell culture incubator at 37°C, 5% CO2, 95% relative humidity. Cell culture medium was replaced every other day. To assess monolayer integrity the transepithelial electrical resistance (TEER) across the monolayer was measured using Millicell Epithelial volt-ohm meter prior to assay and Lucifer yellow (LY) fluorescence measurement post-assay.
(§5) Test compound was prepared in DMSO and diluted in Hank’s Balanced Saline Solution (HBSS, pH 7.4) to a final concentration of 5 µM. Compound was added to the donor compartment of the transwell plate for both apical to basolateral (A>B) and basolateral to apical (B>A) measurements, with blank HBSS being added to the receiver compartment. The transwell plate was then incubated at 37°C, 5% CO2 for 2 hours.
(§6) Samples were taken at T=0 and T=2 hours determine the concentration of initial donor sample, and the concentration of receiver and donor wells post-incubation, respectively.
(§7) The samples were quenched with solvent containing internal standard (IS). The supernatant was mixed with an appropriate volume of ultra-pure water before LC-MS/MS analysis.
(§8) Samples were analysed using a Shimadzu Nexera LC Binary Gradient LC-30AD (Shimadzu Inc, Kyoto), coupled to a Sciex 6500+ (AB Inc., Illinois). Separation of compounds was achieved using a HALO 90Å biphenyl (2.7µm,2.1x50mm) (Advanced Materials Technology, Wilmington) column at a temperature of 40°C. A binary mobile phase gradient at a flow rate of 0.7 mL/min was used. Initial LC conditions comprised of 95% solvent A (0.1% formic acid in water) and 5% solvent B (0.1% formic acid in acetonitrile). This was ramped to 95% solvent B at 0.7 minutes, held for 0.5 minutes and then immediately returned to initial conditions. Sample analysis was by electrospray ionisation combined with multiple reaction monitoring in positive ion mode. The ion spray voltage was 5500V.
(§9) In vitro Absorption, Distribution and Metabolism results
(§10) Table S1 – Result from solubility assays performed in PBS pH 7.4 for SSA 9.
(§11) Table S2 – Summary of results from Caco-2 permeability assays for SSA 9. Papp is given as […]
(§12) cm/s. A = apical; B = basolateral. Recovery = % SSA recovered from the assay after 2 hours.
(§13) ID Papp (A-B) % Recovery Papp (B-A) % Recovery Efflux Ratio
(§14) Table S3 – Summary of results from human plasma protein binding assays for SSA 9. % Bound = % of SSA bound to the plasma proteins after 6 hours incubation at 37 °C. Low % […]
(§15) = > 99 %. % Recovery = % SSA recovered from the assay after 6 hours.
(§16) ID % Bound % Recovery % Stability
(§17) Table S4 – Summary of results from mouse, rat and human microsomal stability assays for SSA 9. The in vitro half-life (t1/2) and microsomal intrinsic clearance (CLint) were calculated from the elimination rate (k, the slope of the natural log of concentration verses time curve), assuming first order kinetics, using the formulae t1/2 = 0.693/-k and CLint = 0.693/t1/2 […]. This compound would be classed as a low clearance compound in all three species. […]

Caco-2 cell monolayer = assay: Bi-directional permeability in Caco-2 cell line; assay type: in vitro ADME
From the text: as §1, §2, §3, §4, §5, §6, §7, §8, §9, §10, §11, §12, §13, §14, §15, §16, §17

Work on O=C(Nc1ccc(C(F)(F)F)cc1)N[C@H](Cc1ccccc1)C(=O)O [SSA 9] yielded a Papp B→A at 2 h, 5 µM ([1]; Caco-2, pH 7.4, 5 µM, 2 hours, basolateral to apical) of 16.8 ×10⁻⁶ cm/s, an efflux ratio at 2 h, 5 µM ([1]; Caco-2, pH 7.4, Caco-2) of 96.9 and a recovery at 2 h, 5 µM ([1]; read-out: Recovery (%) AP-BL) of 111%. For the same compound, the recovery at 2 h, 5 µM ([1]; read-out: Recovery (%) BL-AP) was 97.7%, the Papp A→B at 2 h, 5 µM ([1]; Caco-2, pH 7.4, 5 µM, 2 hours, apical to basolateral) was 0.17 ×10⁻⁶ cm/s and the “Papp (B-A)” value (Caco-2 cell monolayer; 5 µM, 2 hours, basolateral to apical) was 16.76 10-6 cm/s. The “Efflux Ratio” value (Caco-2 cell monolayer; Caco-2) was 96.91, the “Recovery (%) AP-BL” value (Caco-2 cell monolayer; after 2 hours) was 110.78% and the “Recovery (%) BL-AP” value (Caco-2 cell monolayer; after 2 hours) was 97.74%.
